# Literature values as cited in US20260116929A1, “ANTI-GRAM-NEGATIVE BACTERIAL COMPOUND” (Murata Manufacturing Co., Ltd., priority 2018, published 2026).
# How the values were obtained:
# Conditions in all cases: background statement
# gram-positive bacteria = tested on: gram-positive bacteria
# gram-negative bacteria = tested on: gram-negative bacteria
# Vibrio parahaemolyticus = tested on: Vibrio parahaemolyticus
molecule,measurement,setting,value
entianin,antimicrobial activity against gram-positive bacteria,gram-positive bacteria,have antimicrobial activities
same,antimicrobial activity against gram-negative bacteria,gram-negative bacteria,not
Nisin,antimicrobial activity against Vibrio parahaemolyticus,Vibrio parahaemolyticus,no antimicrobial activity
same,antimicrobial activity against gram-positive bacteria,gram-positive bacteria,has an antimicrobial activity
same,antimicrobial activity against gram-negative bacteria,gram-negative bacteria,not
C=C1NC(=O)CC[C@@H](C(=O)O)NC(=O)[C@H](NC(=O)[C@H](CCCCN)NC(=O)[C@@H](N)Cc2c[nH]c3ccccc23)CSC[C@@H](C(=O)N[C@@H]2C(=O)N3CCC[C@H]3C(=O)NCC(=O)N[C@H](C(=O)N[C@H](C(=O)N[C@@H]3C(=O)NCC(=O)N[C@@H](C)C(=O)N[C@@H](CC(C)C)C(=O)N[C@@H](CCC(N)=O)C(=O)N/C(=C/C)C(=O)N[C@H](C(=O)N[C@@H](Cc4ccccc4)C(=O)N[C@@H](CC(C)C)C(=O)N[C@@H](CCC(N)=O)C(=O)N[C@@H]4C(=O)N[C@@H](CC(C)C)C(=O)N[C@H]5C(=O)N[C@@H](CSC4C)C(=O)NC(=O)[C@H](CC(N)=O)N[C@H](C(=O)N[C@@H](CCCCN)C(=O)N[C@H](C(=O)NC(=C)C(=O)N[C@@H](CCCCN)C(=O)O)[C@@H](C)CC)CSC5C)CSC3C)C(C)C)CSC2C)N[C@@H](CC(C)C)C(=O)NC1=O (stereo partly shown) [subtilin],antimicrobial activity against gram-positive bacteria,gram-positive bacteria,have antimicrobial activities
same,antimicrobial activity against gram-negative bacteria,gram-negative bacteria,not
